Data published in US6080750A, “Pyrimidine compound and anti-rotavirus composition” (priority 1996, dated 2000).
≈ marks a conversion by molar mass, not a printed value. Like-named read-outs stand apart in the source and are kept apart here.

Legend:
rotavirus SA-11 strain = assay: Determination of antiviral activity (50% plaque reduction method); type: cell-based, rotavirus SA-11 (in CV-1 green monkey kidney cells); conditions: for IC50: 96 h, read-out: ID50 (50% plaque inhibition dose), rotavirus SA-11; for antiviral index (ED50 /ID50): ED50 CV-1 cells / ID50 rotavirus SA-11
Protocol: Determination of activity of test compound against rotavirus and evaluation thereof
rotavirus: To a liquid containing preserved rotavirus SA-11 strain was added trypsin (Sigma, acetylated trypsin type V-S) to 10 μg/ml and incubated at 37° C. for 30 minutes to activate the […], after which the culture was diluted to a concentration of 50 plaque forming units (PFU)/0.1 ml with Eagle's minimum essential medium (MEM) and used for the determination.
(§1) cultured cell: CV-1 cells which are green monkey kidney cell line were cultured in MEM supplemented with 10% calf serum. The culture cells were prepared to a concentration of 4×10^5 cells/ml, plated on a 24 well microplate and cultured for 2 days before use for the determination.
Activated rotavirus SA-11 […] were inoculated at 50 PFU/0.1 ml to CV-1 cells cultured in a monolayer on a 24 well microplate. The virus was allowed to adsorb to the cells in 1.5 hours at 37° C. and the surface layer of the cells was washed three times with MEM. Then, a multilayer agar medium (mixed medium of MEM, 3 μg/ml acetylated trypsin and agar at final concentration of 0.8%, all added at 45° C.) containing aliquot of test compounds was superposed on the cell layer. The cells were incubated at 37° C. for 4 days, immobilized with formalin, stained with a crystal violet solution and counted for plaque number.
The antiviral activity was expressed by the concentration of the test compound (50% plaque inhibition dose: ID50 =μg/ml), which decreased plaques formed in the control cell culture without the test compound, by 50%.
ED50 value was divided by ID50 value and the obtained value was used as an antiviral index for the determination of selective anti-rotaviral activity on infected cells in comparison to that on normal cells (host cells).

male ICR mice = assay: Toxicity test (mouse acute toxicity, minimum lethal dose); type: in vivo; conditions: oral (po), male ICR mice fasted overnight, survival 14 days
Text: A test compound was orally administered to male ICR mice (weight 25-35 g) fasted overnight, and survival thereof was monitored for 14 days.

[1] = Determination of cytotoxicity (50% cell growth inhibition effect); type: cell-based, green monkey; conditions: monkey; CV-1 cells, 2 days, cell count; read-out: ED50 (50% cell growth inhibition effect dose), CV-1 cells
Protocol: as §1
CV-1 cells were prepared to a concentration of 4×10^4 cells/ml with MEM containing 10% calf serum and plated on a 24 well microplate, which was followed by culture for 2 days. The culture solution thereof was changed to MEM containing 10% calf serum and serially diluted test compounds at various concentrations, and the cells were cultured for 2 days. The cells were prepared into a homogeneous single cell suspension using 0.1% crude trypsin, and counted with a Coulter counter Model D (Coulter Electronics Ltd., England).
The 50% cell growth inhibition effect dose (ED50 =μg/ml) was expressed by the concentration of the test compound, which decreased cell numbers in the control cell culture without the test compound, by 50%.

[2] = in Chlorocebus sabaeus, rotavirus SA-11 50 PFU, CV-1 cells, 37° C., 4 days, plaque count
[3] = Rotavirus, CV-1, in Chlorocebus sabaeus

Row | SMILES | IC50 (rotavirus SA-11 strain; [2]) [µg/mL] | mouse acute toxicity [lethal dose] (minimum lethal dose) (male ICR mice) [mg/kg] | antiviral index (ED50 /ID50) (rotavirus SA-11 strain) | CC50 at 48 h [1] [µg/mL] | IC50 (rotavirus SA-11 strain; [3]) [µg/mL]
1 | Nc1nc(Cl)cc(NCC2(CO)CCC2)n1 [compound No. 35, 2-Amino-6-chloro-4-[[(1-hydroxymethyl-1-cyclobutyl)methyl]amino]-pyrimidine] | 7.8 (≈ 32.1 µM) | > 500 | – | – | –
2 | CC(C)(CO)CNc1cc(Cl)nc(N)n1 [compound No. 20, 2-Amino-6-chloro-4-[(3-hydroxy-2,2-dimethylpropyl)amino]pyrimidine] | 10.5 (≈ 45.5 µM) | – | > 9.5 | > 1 | –
3 | Nc1ncc(Br)c(NCC2(CO)CC(CCc3ccccc3)C2)n1 (centres unmarked) [compound No. 7] | – | > 500 | – | – | –
4 | Nc1nc(Cl)cc(NCC2(CO)CC(Cc3ccccc3)C2)n1 (centres unmarked) [compound 43] | – | > 500 | – | – | –
5 | Nc1nccc(NCC2(CO)CC(OCc3ccccc3)C2)n1 (centres unmarked) [compound No. 3] | 12.6 (≈ 40.1 µM) | – | – | – | –
6 | Nc1nc(Cl)c(N)c(NCCCO)n1 [compound No. 113, 6-Chloro-2,5-diamino-4-[(3-hydroxypropyl)amino]pyrimidine] | 2.6 (≈ 11.9 µM) | > 1000 | > 38 | > 100 | –
7 | CC(C)(CO)CNc1nc(N)nc(Cl)c1N [compound 24] | 1.1 (≈ 4.48 µM) | – | 51.1 | 56.2 (≈ 229 µM) | –
8 | Nc1nccc(NCC2(CO)CC(CCc3ccccc3)C2)n1 (centres unmarked) [compound No. 5] | – | > 500 | – | – | –
9 | Nc1nc(Cl)cc(NCC2(CO)CCCC2)n1 [compound 48] | – | > 500 | – | – | –
10 | Nc1ncc(Br)c(NCC2(CO)CCC2)n1 [compound No. 6, 2-Amino-5-bromo-4-[[(1-hydroxymethyl-1-cyclobutyl)methyl]amino]pyrimidine] | 2.9 (≈ 10.1 µM) | > 500 | – | – | –
11 | Nc1nc(Cl)cc(NCC2(O)CCC2)n1 [compound 28] | – | – | > 10 | > 30 | 3 (≈ 13.1 µM)
12 | Nc1c(Cl)ncnc1NCC1(CO)CCC1 [compound 18] | – | > 500 | – | – | –
13 | CCC(CC)(CO)CNc1nc(N)nc(Cl)c1N [compound 25] | 0.2 (≈ 0.731 µM) | – | 150.0 | 30 (≈ 110 µM) | –
14 | Nc1nc(O)c(N)c(NCC2(CO)CC2)n1 [compound 104] | 0.6 (≈ 2.66 µM) | > 1000 | – | – | –
15 | Nc1nc(Cl)c(N)c(NCC2(CO)CCC2)n1 [compound 59] | 1.9 (≈ 7.37 µM) | > 500 | 2 | 3.6 (≈ 14 µM) | –
16 | CCC(CC)(CO)CNc1cc(Cl)nc(N)n1 [compound 23] | 3.5 (≈ 13.5 µM) | – | 23 | 80 (≈ 309 µM) | –
17 | Nc1nc(Cl)cc(NCC2(CO)CC(c3ccccc3)C2)n1 (centres unmarked) [compound 47] | – | > 500 | – | – | –
18 | Nc1nc(Cl)cc(NCC2(CO)CC(OCc3ccccc3)C2)n1 (centres unmarked) [compound 39] | – | > 500 | – | – | –
19 | COc1cc(NCC2(CO)CCC2)nc(N)n1 [compound 86] | 2.2 (≈ 9.23 µM) | – | – | – | –
20 | Nc1nc(Cl)c(N)c(NCC2(CO)CC2)n1 [compound 58] | – | > 1000 | > 67 | > 100 | 1.5 (≈ 6.16 µM)
21 | Cl.Cl.Nc1nc(Cl)c(N)c(NCCO)n1 [compound No. 112, 6-Chloro-2,5-diamino-4-[(2-hydroxyethyl)amino]pyrimidine dihydrochloride] | – | > 1000 | – | – | –
22 | Nc1nc(Cl)cc(NCC2(CO)CC(CCc3ccccc3)C2)n1 (centres unmarked) [compound 44] | – | > 500 | – | – | –
